{
  "source": "patent US9243036B2",
  "about": "“Anti-microbial activity of synthetic peptides” (THE UNITED STATES OF AMERICA, as represented by the …, priority 2012, dated 2016)",
  "key": {"S. epidermidis": {"tested_on": "S. epidermidis", "experiment": "Anti-bacterial activity in spiked platelets", "assay_type": "cell-based", "details": "even at high concentrations", "method": "(§1) The anti-bacterial activity of the peptide in the presence of homologous plasma and platelets were assessed. Platelet Concentrates (PCs) in bags were obtained and stored at room temperature as described earlier (Mohan, K. V. et al., (2010) Transfusion 50, 166-173). Plasma was isolated from the PC bag by collecting 25 ml of PCs and subjecting the sample to a low speed centrifugation step to separate PLT-rich plasma from plasma. For assays log phase cultures of bacteria grown in Luria-Bertani (LB) broth were centrifuged at 3000×g and suspended in 1×PBS pH7.4. Bacterial titers were estimated by measuring the optical density (OD) and microscopy. Approximately 10^5 CFU/ml of each bacterial strain was spiked into 0.1 ml of plasma or platelets and incubated with peptide at concentrations ranging from 50 to 0 μg/ml. Incubation was carried out at room temperature for 2 h on a shaker. At the end of 2-h exposure period, a fixed volume of the suspension was plated on NA plates, and incubating at 37° C. for 18 to 24 h. Bactericidal activity was measured by log-reduction by viable bacteria."}, "B. cereus": {"tested_on": "B. cereus", "experiment": "Anti-bacterial activity in spiked platelets", "assay_type": "cell-based", "details": "even at high concentrations", "method": "as §1"}, "P. aeruginosa [1]": {"tested_on": "P. aeruginosa", "experiment": "Anti-bacterial activity in spiked platelets", "assay_type": "cell-based", "details": "EC5 25 and 12.5 μg/ml; 2 h", "method": "as §1"}, "S. aureus": {"tested_on": "S. aureus", "experiment": "Anti-bacterial activity in spiked platelets", "assay_type": "cell-based", "details": "even at high concentrations", "method": "as §1"}, "K pneumoniae": {"tested_on": "K pneumoniae", "experiment": "Anti-bacterial activity in spiked platelets", "assay_type": "cell-based", "details": "2 h", "method": "as §1"}, "E. coli [2]": {"tested_on": "E. coli", "experiment": "Anti-bacterial activity in spiked platelets", "assay_type": "cell-based", "details": "2 h", "method": "as §1"}, "other bacteria tested": {"tested_on": "other bacteria tested", "experiment": "2 h incubation of mid-logarithmic cultures with peptide, CFU on NA plates", "assay_type": "cell-based", "details": "even at 50 μg/ml", "method": "All bacterial strains used in this study originated from ATCC (Manassas, Va.): S. aureus (ATCC 25923; ATCC 35548), S. epidermidis (ATCC 35983), E. coli (ATCC 700928; ATCC 25922), P. aeruginosa (ATCC 27853; ATCC 12121), K pneumoniae (ATCC 10031; ATCC 13885) and B. cereus (ATCC 11778). Cultures were maintained and subcultured periodically on nutrient agar plates and stored at 4 to 8° C. until tested. Stock cultures of all bacteria were stored in tryptic soy broth with 10% glycerol at −70° C. Log-phase cultures of bacteria grown in Miller's Luria-Bertani (LB) broth (Mediatech Inc, Herndon, Va.) were concentrated by centrifugation at 3000×g and dilutions were prepared with phosphate-buffered saline (PBS; pH 7.4) (Mediatech Inc, Herndon, Va.). In all experiments bacterial titers were estimated by optical density and confirmed by quantitative culture by plating on nutrient agar (NA) plates.\n(§2) Mid-logarithmic phase cultures of bacteria with an inoculum of 10^5 CFU/ml were incubated with peptide concentrations ranging from 0 to 50 μg/ml in a shaker incubator for 2 h following which the samples were plated on NA agar plates and CFU determined."}, "P. aeruginosa [3]": {"tested_on": "P. aeruginosa", "experiment": "Outer membrane permeabilization (NPN uptake) assay", "assay_type": "cell-based", "method": "(§3) Membrane-permeabilizing activity of the peptide was determined using the fluorescent dye N-phenyl-1-napthylamine (NPN) assay, as described earlier (Loh et al. (1984) Antimicrob. Agents Chemother. 26, 546-551), with intact cells of E. coli and P. aeruginosa. The increase in fluorescence due to partitioning of NPN uptake into outer membrane (OM) was measured by addition of increasing concentrations of peptide. Polymyxin B (PMB) was taken as a positive control due to its outer membrane permeabilizing properties. All experiments were performed three times. S. aureus was used as a negative control.\n(§4) Outer membrane permeabilizing activity of EC5 against E. coli and P. aeruginosa was determined using the fluorescent dye N-phenyl-1-napthylamine (NPN) assay. The outer membrane of a bacterial cell is impermeable to NPN under normal conditions. However permeabilization of outer membrane by anti-microbial peptides allows the uptake of NPN thereby leading to increase in fluorescence in the cell. […] The outer membrane permeabilizing activity of EC5 was compared to polymyxin B, a well studied membrane permeabilising agent (Daugelavicius, R., et al., (2000) Antimicrob. Agents Chemother. 44, 2969-2978)."}, "E. coli [4]": {"tested_on": "E. coli", "experiment": "Outer membrane permeabilization (NPN uptake) assay", "assay_type": "cell-based", "method": "as §3, §4"}, "P. aeruginosa cells": {"tested_on": "P. aeruginosa cells", "experiment": "Qdot-based fluorometry binding assay", "details": "EC5 50 μg/ml", "method": "(§5) The assay was carried out as described earlier (21,24). Bacterial cell suspensions at a concentration of 10^3 CFU were incubated with EC5 (50 μg/ml) in an eppendorf tube at room temperature for 60 min. Following three washes with 1×PBS pH 7.4 the pellet was resuspended in […] of 1:10,000 dilution of streptavidin-conjugated Q dots (QD 605) solution (Invitrogen, Gaithersburg, Md.). The fluorometric counts were measured using SYNERGY 4™ BioTek micro plate reader (BioTek Instruments, Winooski, Vt.).\n(§6) Binding of the peptide to the bacteria was detected using Qdot-nanocrystal cores conjugated to streptavidin. Analysis of the bacterial suspension binding to the peptide was performed in a micro-well plate using a fluorescence plate reader (SYNERGY 4™, Biotek, USA). Excitation was set to a spectral range of 360-485 nm and emission was at 605 nm. […] The analysis also confirmed that EC5 binds to P. aeruginosa cells."}, "E. coli [5]": {"tested_on": "E. coli", "experiment": "Qdot-based fluorometry binding assay", "details": "EC5 50 μg/ml; p<0.0001", "method": "as §5, §6"}, "P. aeruginosa [6]": {"tested_on": "P. aeruginosa", "experiment": "2 h incubation of mid-logarithmic cultures with peptide, CFU on NA plates", "assay_type": "cell-based", "details": "peptide 12.5, 25 and 50 μg/ml, inoculum 10^5 CFU/ml", "method": "as §2"}, "E. coli [7]": {"tested_on": "E. coli", "experiment": "2 h incubation of mid-logarithmic cultures with peptide, CFU on NA plates", "assay_type": "cell-based", "details": "peptide 12.5, 25 and 50 μg/ml, inoculum 10^5 CFU/ml", "method": "as §2"}, "[8]": {"details": "increasing peptide concentrations"}},
  "note": "Entries after “also recorded” stand apart in the source; their conditions may differ. Residues, ends and D or L forms follow the SMILES beside them.",
  "data": [
    {"smiles": "CC[C@H](C)[C@H](NC(=O)[C@H](CCCCN)NC(=O)[C@H](CCCNC(=N)N)NC(=O)[C@H](Cc1ccccc1)NC(=O)[C@H](CC(C)C)NC(=O)[C@H](CC(C)C)NC(=O)[C@@H](N)CCCNC(=N)N)C(=O)N[C@@H](CCCNC(=N)N)C(=O)N[C@@H](CCCNC(=N)N)C(=O)N[C@@H](CC(C)C)C(=O)N[C@@H](CCCCN)C(=O)N[C@@H](CCCNC(=N)N)C(=O)O", "note": "[EC5, RLLFRKIRRLKR] (H-RLLFRKIRRLKR-OH; N-terminus and C-terminus assumed)", "values": [
      {"measurement": "reduction of S. epidermidis in platelets", "setting": "S. epidermidis", "result": "No significant reduction"},
      {"measurement": "reduction of B. cereus in platelets", "setting": "B. cereus", "result": "No significant reduction"},
      {"measurement": "reduction of P. aeruginosa in platelets", "setting": "P. aeruginosa [1]", "result": 4, "unit": "log10 CFU/ml"},
      {"measurement": "reduction of S. aureus in platelets", "setting": "S. aureus", "result": "No significant reduction"},
      {"measurement": "reduction of K pneumoniae in platelets", "setting": "K pneumoniae; EC5 12.5 μg/ml", "result": 1, "unit": "log10CFU/m"},
      {"measurement": "reduction of K pneumoniae in platelets", "setting": "K pneumoniae; EC5 25 μg/ml", "result": 1.5, "unit": "log10CFU/m"},
      {"measurement": "reduction of K pneumoniae in platelets", "setting": "K pneumoniae; EC5 50 μg/ml", "result": 2.5, "unit": "log10CFU/m"},
      {"measurement": "reduction of E. coli in platelets", "setting": "E. coli [2]; EC5 12.5 μg/ml", "result": 4.5, "unit": "log10 CFU/ml"},
      {"measurement": "E. coli colonies in platelets", "setting": "E. coli [2]; EC5 50 and 25 μg/ml", "result": "no detectable E. coli colonies; also recorded: complete inhibition"},
      {"measurement": "activity against the other bacteria tested", "setting": "other bacteria tested", "result": "no activity"},
      {"measurement": "increase in NPN fluorescence compared with polymyxin B", "setting": "P. aeruginosa [3]; at similar concentrations", "result": "higher than for polymyxin B"},
      {"measurement": "NPN fluorescence (outer membrane permeabilization)", "setting": "P. aeruginosa [3]; [8]", "result": "dose-dependent increase in fluorescence"},
      {"measurement": "increase in NPN fluorescence compared with polymyxin B", "setting": "E. coli [4]; at similar concentrations", "result": "higher than for polymyxin B"},
      {"measurement": "NPN fluorescence (outer membrane permeabilization)", "setting": "E. coli [4]; [8]", "result": "dose-dependent increase in fluorescence"},
      {"measurement": "binding to P. aeruginosa cells (fluorometric counts)", "setting": "P. aeruginosa cells", "result": "binds"},
      {"measurement": "binding to E. coli (fluorometric counts)", "setting": "E. coli [5]", "result": "able to bind"},
      {"measurement": "reduction of P. aeruginosa", "setting": "P. aeruginosa [6]", "result": 5, "unit": "log10 CFU/ml"},
      {"measurement": "reduction of E. coli", "setting": "E. coli [7]", "result": 5, "unit": "log10 CFU/ml"}
    ]}
  ]
}
